# Results from a melting point compilation (Tetko et al.; mined from patent text by program, amines drawn as free bases though some values may be those of a salt).
row,Compound,melting point [°C]
1,Cc1ccc(-c2cc[nH]c2CC[N+](=O)[O-])cc1,81 to 82
2,N#CCCCSc1cccc(NC(N)=NCC(F)(F)F)n1,89 to 91
3,O=S1(=O)N=C(NC2CCC2)Nc2cc(Cl)c(Cl)cc21,320 to 326
4,CCOC(=O)C(C)(C)NC(=O)c1cccc(C2=NC(C)(C)Cc3c(CC#N)c(OC)c4c(c32)CC(C)(C)O4)c1,126 to 128
5,N#CCCn1ccc(NC(N)=NCC(F)(F)F)n1,141 to 142
6,Cc1ccc(C=CC(=O)CCCCCl)cc1,79 to 82
7,CC(=O)NS(=O)(=O)c1cccc(N)c1,148 to 150
8,NC(=O)c1ccc(F)c(F)c1Cl,142 to 143
9,COC(=O)C(=CN(C)C)c1cc(F)cc(F)c1,97
10,CCNc1nc2ccccc2n2cnnc12,254 to 256
11,CNCC1CCN(c2c(F)cc3c(=O)c(C(=O)O)cn(C4CC4)c3c2OC)C1 (stereo not given),226 to 230
12,COc1ccc(OCC2CCC(CBr)CC2)c(Cl)c1 (stereo not given),74 to 78
13,CCCCC/C(=C\C=C\C(=O)O)c1ccc(F)cc1,116 to 118
14,CCC(OC)c1cccc2nc3n(c12)CCCN3c1ccc(Cl)cc1Cl (stereo not given),151 to 153
15,O=C(c1c(F)cccc1F)N1COCN(c2ccc(S(=O)(=O)C(F)F)cc2F)C1=O,210 to 213
16,CCCCOc1nc(N)c2nc(OC)n(CCCBr)c2n1,200 to 201
17,CNC(=O)CC=C(CC(C)C)C(=O)O,120 to 122
18,N#Cc1ccc(N2C(=N)C3(CCCC3)NC2=O)cc1C(F)(F)F,212 to 213
19,Nc1nc(N)nc(-c2ccc3c(c2)OCCO3)n1,241 to 244
20,Nc1nc2cc[nH]c2c(=O)[nH]1,> 300
21,CCNC(=O)Nc1nc2cc(-c3cccnc3)cc(C(=O)OC)n2n1,211 to 213

# Further lines, results first:
row,melting point [°C],Compound
1,253 to 255,Cc1ccc(C)c(-c2c3ccccc3nc3ccc(NC(=O)c4ccccc4)cc23)c1
2,117 to 122,CC(Cc1c[nH]c2ccccc12)(NC(=O)OC1C2CC3CC(C2)CC1C3)C(=O)NCC(CCC(=O)O)c1ccccc1 (stereo not given)
3,68 to 75,CCn1c(=O)n(Cc2ccccc2)c(=O)c2c(N3CCN(C)CC3)cc(Cl)cc21
4,124 to 125,COc1cc2ccc(C(=O)c3ccccc3)cc2cc1OC
5,232 to 235,CN(Cc1ccc(NC(=O)C2=Cc3cc(Br)ccc3S(=O)(=O)CC2)cc1)C1CCOCC1
6,167 to 168,Nc1nc(C2CCN(C(=O)Cc3ccc4c(c3)OCO4)CC2)c2ccccc2n1
7,146 to 148,O=C1NCC(Cc2ccccc2-c2ccccc2)O1 (stereo not given)
8,284 to 285,COc1ccc2nc3ccc(C#N)cn3c(=O)c2c1
9,217 to 218,Cc1ccc(-c2nc(C#N)cc3c4cccc5c4n(c23)CCC5)cc1
10,157 to 159,Cc1cc(S(=O)(=O)c2ccc(N)cc2)cc(N(C)C)n1
11,235 to 237,O=C1CCC(N2C(=O)c3cccc(Nc4ccc5ccccc5c4)c3C2=O)C(=O)N1 (stereo not given)
12,133 to 134,CCOc1nn(Cc2cncc(OCc3nc(-c4ccccc4)oc3C)c2)cc1CCC(=O)O
13,198 to 206,Cc1ccc2c(c1)N(CC(=O)c1cccs1)C(=O)C(NC(=O)Nc1cccc(C(=O)O)c1)CN2C(=O)C(C)(C)C (stereo not given)
14,160 to 163,O=C1c2ccccc2C(=O)c2c1c(Cl)c1ccc(Sc3ccccc3)cc1c2Cl
15,119 to 121,N#Cc1ccc(-c2ccc3ccccc3c2)cc1Cn1cncn1
16,> 300,NS(=O)(=O)c1ccc(NC(=O)c2cc(F)ccc2SSc2ccc(F)cc2C(=O)Nc2ccc(S(N)(=O)=O)cc2)cc1
17,239 to 240,COC(=O)c1ccc2cc(-c3ccc(C(=O)O)c(C45CC6CC(CC(C6)C4)C5)c3)ccc2c1
18,156 to 158,O=C(Oc1ccccc1)N1CCC2(CC1)SC(c1ccccc1)c1ccc(F)cc12 (stereo not given)
19,270 to 273,CCCOc1ccc(-c2ccc3c(c2)C=C(C(=O)O)CCS3(=O)=O)cc1
